Measured values as given in patent US20090170813A1, “Hypophosphorous Acid Derivatives and their Therapeutical Applications” (priority 2005, published 2009).
Like-named read-outs stand apart in the source and are kept apart here. Each block holds one molecule with its values, some of them ahead of it.

Key:
rat mGlu4 = target: T1, rat mGlu4 (Rattus norvegicus, UniProt P31423); test: Agonist activity, [3H]phosphatidylinositol accumulation in HEK293 cells transfected with rat mGlu4 and Gqi9; assay type: cell-based
T1 construct: expressed in transfected cells; host or cells: HEK293
Experimental: Agonist activity of the compounds was tested on HEK293 cells transiently transfected with rat mGlu4 expressing plasmid pRKG4 and chimeric G-protein Gqi9 by electroporation, as described by Gomeza, J. et al, Mol. Pharmacol; 1996, 50, 923-930.
Cells were plated in 96-well culture plates and labeled overnight with [^3H]myoinositol. The day after, cells were washed three times with Krebs buffer, incubated for 10 min with LiCl 5 mM, and then incubated for 30 min in the absence (basal) or in the presence of the indicated compounds at 1 nM up to 1000 μM. The total amount of [^3H]phosphatidylinositol accumulated in the cells was determined after Dowex purification as previously by Goudet C, et al, Prod. Natl. Acad. Sci. USA 2004, 101, 378-383.
The response dosis curves were adjusted by using equatrier y=[(Ymax−ymin)/(1+(x/EC50)^n)]+ymin where EC50 is the concentration necessary for obtaining half of the maximal effect and n is Hill coefficient.

mGlu7 = mGlu7 (Homo sapiens, UniProt Q14831); test: Agonist activity on group III receptor mGlu7
mGlu8 = mGlu8 (Homo sapiens, UniProt O00222); test: Agonist activity on group III receptor mGlu8
mGlu4R [1] = target: T2, mGlu4R (Homo sapiens, UniProt Q14833); settings: background statement; read-out: IC50 as competitive antagonist; cited from earlier work
mGlu4R [2] = target: T2, mGlu4R; settings: background statement; read-out: EC50 as mGlu4R agonist; cited from earlier work
[3] = Table 1, mean ± spread (n), read-out: EC50 mGlu4

T1 sequence (P31423 33-912): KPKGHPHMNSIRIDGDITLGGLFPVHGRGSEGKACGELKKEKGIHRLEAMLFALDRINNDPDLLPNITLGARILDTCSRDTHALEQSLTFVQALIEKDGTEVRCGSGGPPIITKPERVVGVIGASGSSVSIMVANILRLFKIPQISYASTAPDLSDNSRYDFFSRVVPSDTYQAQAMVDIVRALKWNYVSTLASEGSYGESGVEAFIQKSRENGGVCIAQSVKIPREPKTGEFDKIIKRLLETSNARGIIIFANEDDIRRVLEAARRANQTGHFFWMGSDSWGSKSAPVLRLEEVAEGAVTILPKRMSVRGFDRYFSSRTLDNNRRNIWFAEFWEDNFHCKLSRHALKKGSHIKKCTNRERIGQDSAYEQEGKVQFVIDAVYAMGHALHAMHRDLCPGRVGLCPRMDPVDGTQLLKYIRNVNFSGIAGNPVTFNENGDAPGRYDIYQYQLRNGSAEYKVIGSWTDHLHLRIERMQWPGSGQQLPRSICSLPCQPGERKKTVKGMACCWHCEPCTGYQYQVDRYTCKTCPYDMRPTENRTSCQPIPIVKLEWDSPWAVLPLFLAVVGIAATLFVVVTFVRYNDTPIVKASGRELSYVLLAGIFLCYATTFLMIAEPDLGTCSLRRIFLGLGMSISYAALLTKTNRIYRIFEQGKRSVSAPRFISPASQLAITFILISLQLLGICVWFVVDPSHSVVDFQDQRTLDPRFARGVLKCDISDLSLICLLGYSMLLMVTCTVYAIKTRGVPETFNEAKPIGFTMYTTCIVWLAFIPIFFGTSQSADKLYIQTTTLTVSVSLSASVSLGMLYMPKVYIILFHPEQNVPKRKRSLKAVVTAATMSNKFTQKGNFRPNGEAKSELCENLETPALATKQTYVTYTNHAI
Chain of mGlu8 (O00222 34-908): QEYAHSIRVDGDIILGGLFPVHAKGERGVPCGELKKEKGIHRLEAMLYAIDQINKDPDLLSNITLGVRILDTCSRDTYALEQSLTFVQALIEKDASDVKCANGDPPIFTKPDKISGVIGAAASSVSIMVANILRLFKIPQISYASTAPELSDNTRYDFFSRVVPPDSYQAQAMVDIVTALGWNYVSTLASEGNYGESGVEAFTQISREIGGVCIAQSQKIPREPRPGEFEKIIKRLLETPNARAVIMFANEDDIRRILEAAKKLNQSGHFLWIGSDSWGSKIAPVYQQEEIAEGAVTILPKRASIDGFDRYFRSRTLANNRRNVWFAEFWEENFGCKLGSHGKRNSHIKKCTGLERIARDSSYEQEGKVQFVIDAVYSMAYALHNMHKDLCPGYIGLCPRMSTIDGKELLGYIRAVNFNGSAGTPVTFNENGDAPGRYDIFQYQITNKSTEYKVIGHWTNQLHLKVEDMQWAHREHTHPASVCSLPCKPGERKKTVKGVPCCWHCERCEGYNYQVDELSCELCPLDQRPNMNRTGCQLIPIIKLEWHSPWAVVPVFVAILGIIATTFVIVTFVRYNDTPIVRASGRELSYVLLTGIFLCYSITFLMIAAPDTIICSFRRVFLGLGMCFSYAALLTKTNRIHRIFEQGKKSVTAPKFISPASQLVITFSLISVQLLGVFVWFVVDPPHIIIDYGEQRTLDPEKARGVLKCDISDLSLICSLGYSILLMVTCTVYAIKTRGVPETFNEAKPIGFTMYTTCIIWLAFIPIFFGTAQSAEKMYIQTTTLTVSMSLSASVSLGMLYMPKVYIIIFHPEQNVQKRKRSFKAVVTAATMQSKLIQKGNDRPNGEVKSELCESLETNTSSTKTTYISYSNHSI
Chain of mGlu7 (Q14831 35-915): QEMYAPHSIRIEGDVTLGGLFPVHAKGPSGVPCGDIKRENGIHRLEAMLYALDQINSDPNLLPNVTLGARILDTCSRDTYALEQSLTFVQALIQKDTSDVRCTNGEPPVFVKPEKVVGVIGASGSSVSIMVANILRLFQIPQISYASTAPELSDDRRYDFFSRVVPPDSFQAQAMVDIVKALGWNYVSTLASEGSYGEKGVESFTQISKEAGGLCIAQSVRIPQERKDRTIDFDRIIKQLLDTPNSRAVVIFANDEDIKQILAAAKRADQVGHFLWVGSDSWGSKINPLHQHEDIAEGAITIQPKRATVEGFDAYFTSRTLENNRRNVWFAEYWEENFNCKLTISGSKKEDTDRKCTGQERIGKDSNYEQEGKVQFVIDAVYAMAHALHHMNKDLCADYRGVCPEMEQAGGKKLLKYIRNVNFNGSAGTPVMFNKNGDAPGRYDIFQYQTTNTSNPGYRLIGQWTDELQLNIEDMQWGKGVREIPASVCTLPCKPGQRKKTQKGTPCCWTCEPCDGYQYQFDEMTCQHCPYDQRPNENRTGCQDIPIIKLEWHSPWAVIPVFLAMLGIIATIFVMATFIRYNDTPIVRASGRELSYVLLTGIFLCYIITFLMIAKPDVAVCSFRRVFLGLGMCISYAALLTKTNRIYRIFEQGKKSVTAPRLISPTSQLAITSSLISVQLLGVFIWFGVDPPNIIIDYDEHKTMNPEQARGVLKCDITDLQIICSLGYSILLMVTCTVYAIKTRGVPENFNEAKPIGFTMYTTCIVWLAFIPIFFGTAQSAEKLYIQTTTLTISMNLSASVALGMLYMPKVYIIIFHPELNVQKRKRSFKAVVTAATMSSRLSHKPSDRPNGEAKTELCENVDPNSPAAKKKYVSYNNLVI
T2 sequence (Q14833 33-912): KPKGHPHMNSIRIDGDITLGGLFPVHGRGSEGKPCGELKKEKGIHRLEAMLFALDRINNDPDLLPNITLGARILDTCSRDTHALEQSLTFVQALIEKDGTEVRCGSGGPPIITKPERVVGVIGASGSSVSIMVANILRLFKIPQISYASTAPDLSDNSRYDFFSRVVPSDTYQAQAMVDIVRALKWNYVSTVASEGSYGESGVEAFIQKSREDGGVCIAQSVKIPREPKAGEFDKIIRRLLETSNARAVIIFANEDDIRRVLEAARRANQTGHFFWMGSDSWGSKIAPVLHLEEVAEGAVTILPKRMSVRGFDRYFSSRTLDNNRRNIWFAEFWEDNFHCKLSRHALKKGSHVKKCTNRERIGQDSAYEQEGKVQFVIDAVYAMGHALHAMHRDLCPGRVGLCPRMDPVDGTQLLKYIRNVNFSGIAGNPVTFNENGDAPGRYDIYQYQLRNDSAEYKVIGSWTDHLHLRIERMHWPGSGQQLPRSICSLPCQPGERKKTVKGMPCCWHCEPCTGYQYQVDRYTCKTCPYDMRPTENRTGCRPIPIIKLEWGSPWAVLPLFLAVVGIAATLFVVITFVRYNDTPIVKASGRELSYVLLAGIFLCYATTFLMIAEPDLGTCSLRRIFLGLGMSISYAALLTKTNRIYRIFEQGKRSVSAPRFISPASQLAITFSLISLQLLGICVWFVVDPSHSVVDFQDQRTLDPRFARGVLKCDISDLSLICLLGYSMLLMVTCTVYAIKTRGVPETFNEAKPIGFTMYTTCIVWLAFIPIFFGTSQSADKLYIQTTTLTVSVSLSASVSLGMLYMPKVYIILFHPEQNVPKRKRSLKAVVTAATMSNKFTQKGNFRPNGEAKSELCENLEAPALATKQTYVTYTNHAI

Compound: N[C@H](CCP(=O)(O)CCC(=O)O)C(=O)O [(3R)-PCEP, 3-amino-carboxy-propyl-2′-carboxy-ethylphosphinic acid, reference compound]
EC50 (rat mGlu4; [3]): 24.2 ± 7.6 µM
EC50 (mGlu7; read-out: EC50 mGlu7, Table 1): > 1000 µM
EC50 (mGlu8; read-out: EC50 mGlu8, Table 1, mean ± spread (n)): 58.2 ± 8.8 µM

Compound: CC(N)(CCP(=O)(O)O)C(=O)O (stereo not drawn) [α-methyl analogue]
IC50 (mGlu4R [1]): 100 µM

Compound: NC(CCP(=O)(O)O)C(=O)O [L-AP4]
EC50 (mGlu4R [2]): 0.32 µM

Second part, the molecule after the results:

EC50 (rat mGlu4; [3]): 6.6 ± 2.8 µM
EC50 (rat mGlu4; Table 2, n in brackets, read-out: mGlu4 EC50 μM (n)): 7.1 µM
EC50 (mGlu7): > 1000 µM
EC50 (mGlu8): 24.2 ± 9 µM
Compound: NC(CCP(=O)(O)CCC(=O)O)C(=O)O (racemic) [Compound 4, 3-[((3-Amino-3-carboxy)propyl)(hydroxy)phosphinyl]propanoic Acid]

mGlu4 activity at 100 μM (rat mGlu4; at 100 μM): inactive at 100 μM (1)
Compound: C/C(=C\C(=O)O)C(O)P(=O)(O)CC[C@H](N)C(=O)O (stereo partly drawn) [Compound 31, (3S)-4-[((3-amino-3-carboxy)propyl)(hydroxy)phosphinyl]-4-hydroxy-3-methyl-2-butenoic Acid]
